These results are taken from patent EP3386957B1, “PROCESS FOR THE PURIFICATION OF 10-DEACETYL BACCATIN III” (RotaChrom Technológiai és Szolgálató Zártkörüen Müködö …, priority 2015, dated 2017).

A short description of the data set: Selectivity of CPC solvent systems for contaminants of 10-DAB III (contaminants identified by HPLC relative retention time). It is filed as physicochemical. Conditions: CPC solvent mixture MTBE/acetone/water; Table 3. The method, then: The HPLC methods used for the analysis: • 1. Isocratic method • Column: Dr Maisch ReproSil-Pur C18-AQ (150x4.0 mm, 3 um) • Column thermostat: 35 °C • Flow rate: 0.75 ml/min • Eluent: 28% acetonitrile, 72% water, 0.1% acetic acid • Detection wavelength: 230 +/- 5 nm • Injected volume: 10 ul • 2. Gradient method • Colum: Phenomenex Kinetex C18 (100x3.0 mm, 2.6 um) • Column thermostat: 35 °C • Flow rate: 0.7 ml/min • Eluent A: water + 0.1% acetic acid Eluent B: acetonitrile Gradient program: 0 min 20% B, 5 min: 30% B, 11 min 40% B, 13 min 40% B, 14 min 20% B, 18 min 20% B • Detection wavelength: 230 +/- 5 nm • Injected volume: 5 ul
Table 3: the selectivity matrix of the individual methods according to the invention

Consider `CC(=O)O[C@@]12CO[C@@H]1C[C@H](O)[C@@]1(CO)C(=O)[C@H](O)C3=C(C)[C@@H](O)C[C@@](O)([C@@H](OC(=O)c4ccccc4)[C@H]21)C3(C)C` [RRT=0.48, 19-OH-10-deacetylbaccatin III], for which the selectivity entry is on record as “+++ (high selectivity)”.
